# In PMC6909939, “Study on the Interactions Between Caffeoylquinic Acids With Bovine Serum Albumin: Spectroscopy, Antioxidant Activity, LC-MS^n, and Molecular Docking Approach” (Frontiers in Chemistry, 2019):
# Several values for one entry are separate records, joined by “and”; a condition that tells them apart may be missing. Equal values may be shown once. Read-outs that look alike come from different tables or passages of the source.
# Key:
# [1] = biological target: T1, BSA (Bos taurus, UniProt P02769); assay: CD measurement of BSA secondary structure (α-helix content); parameters: species or system bovine
# T1 construct: purchased AMRESCO
# T1 sequence (P02769 25-607): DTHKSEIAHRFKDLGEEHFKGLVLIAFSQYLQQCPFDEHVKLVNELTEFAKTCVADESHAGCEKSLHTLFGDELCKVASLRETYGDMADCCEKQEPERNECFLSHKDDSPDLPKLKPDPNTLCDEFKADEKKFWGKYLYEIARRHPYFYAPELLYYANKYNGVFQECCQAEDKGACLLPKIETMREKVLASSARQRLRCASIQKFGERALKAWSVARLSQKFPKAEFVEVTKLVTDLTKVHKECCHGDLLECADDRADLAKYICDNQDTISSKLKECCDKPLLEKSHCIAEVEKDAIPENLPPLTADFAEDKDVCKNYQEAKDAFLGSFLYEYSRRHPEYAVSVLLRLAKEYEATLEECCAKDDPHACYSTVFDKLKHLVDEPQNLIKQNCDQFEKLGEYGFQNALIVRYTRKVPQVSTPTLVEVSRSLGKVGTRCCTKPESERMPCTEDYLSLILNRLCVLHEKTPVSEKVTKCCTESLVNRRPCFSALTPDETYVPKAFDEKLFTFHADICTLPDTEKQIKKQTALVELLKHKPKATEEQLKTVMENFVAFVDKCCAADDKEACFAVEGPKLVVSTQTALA
# Protocol: The J-815 automatic recording spectropolarimeter (Japan) equipped with 1.0 mm path length quartz cuvettes was employed to determine the CD spectrum of BSA and CQAs-BSA. All the CD spectra were recorded from 190 to 250 nm at 300 K, and the scanning speeds were all set as 50 nm·min^−1. The concentration of BSA and CQAs was 2.0 × 10^−6 and 10.0 × 10^−6 M, respectively. Each spectrum was scanned for successive three times and corrected by corresponding buffer solution.
# Far-UV CD spectrum could monitor the secondary structures changes of BSA. To further study the interaction of CQAs and BSA and accurately detect the changes of the secondary structures of BSA, CD spectra of BSA was performed in with or without CQAs in different solvent systems.
# [2] = biological target: T2, bovine serum albumin (BSA) (Bos taurus, UniProt P02769); assay: Fluorescence quenching of BSA by CQAs (Stern-Volmer, double-log, Van't Hoff); type: binding; conditions: for ΔH / ΔS: 300-310 K; for Kd: read-out: Ka (converted); for λa-λj (shift of BSA fluorescence emission): CQA 0 to 5.0 × 10^−6 M
# T2 construct: purchased AMRESCO
# T2 sequence (P02769 25-607): as above
# Protocol: Fluorescence analysis was determined with the LS-45 fluorophotometer (PerkinElmer, USA). […] The synchronous fluorescence spectrum was recorded at Δλ = 15/60 nm at 300 K. The concentration of BSA was set as 0.2 × 10^−6 M, and the concentrations of CQAs were set as 0~5.0 × 10^−6 M by successive additions. The 3D fluorescence spectrum of BSA (0.2 × 10^−6 M) and the BSA-drug (10:1 mol ratio of protein to ligand) complexes were determined at 200–350 nm in 5 nm increments, and the emission spectrum was set as between 200 and 500 nm.
# Static and dynamic quenching were two kinds of quenching mechanisms. Both of them followed the equation of Stern-Volmer (Tang and Jia, [2013]): […]
# where F0 and F were the fluorescence intensities of BSA with or without CQAs, respectively; KSV were the Stern-Volmer quenching constants; [Q] was the concentration of CQAs.
# Binding constants and binding sites could be determined by double logarithmic curve equation (Hemmateenejad et al., [2012]):
# (2) logF0-F/F=logKa+nlog[Q]
# where F0 and F were the fluorescence intensities of BSA with or without CQAs, respectively; [Q] was the concentrations of CQAs; Ka was the binding constants and n was the number of binding sites.
# The binding force between drugs and BSA was non-covalent interaction, like hydrogen-bond interaction, electrostatic forces, hydrophobic effects and Van der Waals forces (Cheng et al., [2015]). The binding parameters could be employed to determine the types of binding forces. The value of ΔH (enthalpy change) and ΔS (entropy changes) could be determined by Van't Hoff equation: […]
# where Ka were the binding constants, R were the gas constants and T was the temperatures. Free energy changes (ΔG) could be determined by the following equation: […]
# [3] = test system: bovine serum albumin; conditions: ref Li et al., 2010; cited from earlier work
smiles,measurement,setting,value
"O=C(C=Cc1ccc(O)c(O)c1)OC1CC(O)(C(=O)O)CC(O)C1O (stereo not shown) [3-CQA, 3-O-caffeoylquinic acid]",increase of α-helix content of BSA,[1]; Tris-HCl buffer,5.15%
same,Fluorescence quenching rate,[2],40.14% and 32.93%
same,ΔG,"[2]; H2O, 305 K",-8.535 kcal/mol
same,ΔG,"[2]; H2O, 310 K",-8.05 kcal/mol
same,ΔG,"[2]; PBS, 310 K",-8.081 kcal/mol
same,ΔG,"[2]; Tris-HCl, 300 K",-9.498 kcal/mol
"O=C(C=Cc1ccc(O)c(O)c1)OC1C(O)CC(O)(C(=O)O)CC1O (stereo not shown) [4-CQA, 4-O-caffeoylquinic acid]",increase of α-helix content of BSA,[1]; H2O,4.84%
same,increase of α-helix content of BSA,[1]; PBS buffer,1.97%
same,increase of α-helix content of BSA,[1]; Tris-HCl buffer,14.14%
same,Fluorescence quenching rate,[2]; H2O,30.99%
same,ΔH,[2]; H2O,-60.053 kcal/mol
same,ΔS,[2]; H2O,-705.46 J·mol^−1·k^−1
same,KSV,"[2]; H2O, 300 K",83600 L/mol
same,n (number of binding sites),"[2]; H2O, 300 K",1.3458
same,ΔG,"[2]; H2O, 300 K",-9.469 kcal/mol
same,Kd,"[2]; H2O, 300 K",173 nM
same,KSV,"[2]; H2O, 305 K",60500 L/mol
same,n (number of binding sites),"[2]; H2O, 305 K",1.3177
same,ΔG,"[2]; H2O, 305 K",-8.626 kcal/mol
same,Kd,"[2]; H2O, 305 K",347 nM
same,KSV,"[2]; H2O, 310 K",57700 L/mol
same,n (number of binding sites),"[2]; H2O, 310 K",1.1102
same,ΔG,"[2]; H2O, 310 K",-7.784 kcal/mol
same,Kd,"[2]; H2O, 310 K",4520 nM
same,λa-λj (shift of BSA fluorescence emission),[2]; H2O,-5.5 nm
same,Fluorescence quenching rate,[2]; PBS,22.65%
same,ΔH,[2]; PBS,-64.912 kcal/mol
same,ΔS,[2]; PBS,-774.09 J·mol^−1·k^−1
same,KSV,"[2]; PBS, 300 K",132900 L/mol
same,n (number of binding sites),"[2]; PBS, 300 K",1.3138
same,ΔG,"[2]; PBS, 300 K",-9.407 kcal/mol
same,Kd,"[2]; PBS, 300 K",175 nM
same,KSV,"[2]; PBS, 305 K",98000 L/mol
same,n (number of binding sites),"[2]; PBS, 305 K",1.2398
same,ΔG,"[2]; PBS, 305 K",-8.482 kcal/mol
same,Kd,"[2]; PBS, 305 K",532 nM
same,KSV,"[2]; PBS, 310 K",60000 L/mol
same,n (number of binding sites),"[2]; PBS, 310 K",1.0835
same,ΔG,"[2]; PBS, 310 K",-7.557 kcal/mol
same,Kd,"[2]; PBS, 310 K",5920 nM
same,λa-λj (shift of BSA fluorescence emission),[2]; PBS,-4 nm
same,Fluorescence quenching rate,[2]; Tris-HCl,35.83%
same,binding affinity change (times) when temperature rises from 300 to 310 K,[2]; Tris-HCl,37.4
same,ΔH,[2]; Tris-HCl,-52.079 kcal/mol
same,ΔS,[2]; Tris-HCl,-588.56 J·mol^−1·k^−1
same,KSV,"[2]; Tris-HCl, 300 K",189400 L/mol
same,n (number of binding sites),"[2]; Tris-HCl, 300 K",1.4214
same,ΔG,"[2]; Tris-HCl, 300 K",-9.878 kcal/mol
same,Kd,"[2]; Tris-HCl, 300 K",30.1 nM
same,KSV,"[2]; Tris-HCl, 305 K",120400 L/mol
same,n (number of binding sites),"[2]; Tris-HCl, 305 K",1.2871
same,ΔG,"[2]; Tris-HCl, 305 K",-9.178 kcal/mol
same,Kd,"[2]; Tris-HCl, 305 K",238 nM
same,KSV,"[2]; Tris-HCl, 310 K",47100 L/mol
same,n (number of binding sites),"[2]; Tris-HCl, 310 K",1.2434
same,ΔG,"[2]; Tris-HCl, 310 K",-8.473 kcal/mol
same,Kd,"[2]; Tris-HCl, 310 K",1130 nM
same,λa-λj (shift of BSA fluorescence emission),[2]; Tris-HCl,3.5 nm
"O=C(/C=C/c1ccc(O)c(O)c1)O[C@@H]1C[C@](O)(C(=O)O)C[C@@H](O)[C@H]1O [5-CQA, 5-O-caffeoylquinic acid]",increase of α-helix content of BSA,[1]; H2O,0.69%
same,increase of α-helix content of BSA,[1]; PBS buffer,0.08%
same,increase of α-helix content of BSA,[1]; Tris-HCl buffer,8.16%
same,binding constant,[3],higher than that of caffeic acid
same,Fluorescence quenching rate,[2],35.34% and 32.09%
same,n (number of binding sites),[2],0.9251
same,ΔG,"[2]; Tris-HCl, 300 K",-10.18 kcal/mol
same,ΔG,"[2]; Tris-HCl, 305 K",-9.252 kcal/mol
same,ΔG,"[2]; Tris-HCl, 310 K",-8.325 kcal/mol
